The values that follow come from ChEMBL document CHEMBL1151275, “An anthraquinone with potent quinone reductase-inducing activity and other constituents of the fruits of Morinda citrifolia (noni)” (J Nat Prod, 2005).

The nature of assay [1]: Cytotoxicity against mouse Hepa-1c1c7 cells after 48 hrs by crystal violet staining. In kind it is cell-based. Particulars: Hepa-1c1c7, 48 h.
Assay [2] is described as follows: Chemoprevention index, ratio of IC50 for mouse Hepa-1c1c7 cells to drug level required to double specific NADPH:quinone reductase activity in mouse Hepa-1c1c7 cells. In kind it is functional.

Usually IC50 stands for the concentration at which inhibition is half-maximal.

Regarding `COc1c(O)cc2c(c1O)C(=O)c1ccc(O)cc1C2=O`, the concentration for half-maximal inhibition (IC50) in assay [1] was greater than 69.9 µM. For the same molecule, in assay [2], the Ratio was greater than 7770.

On to `COc1ccc(O)c2c1C(=O)c1ccc(CO)c(O)c1C2=O`, for which, in assay [1], the IC50 is greater than 66.6 µM. In assay [2], the Ratio was greater than 39.9.

In assay [1], `C[S@+]([O-])CCCCN=C=S` [L-SULFORAPHANE] registered an IC50 of 9.77 µM. The Ratio in assay [2] turned out to be 28.7.
